Measured values as given in patent publication US20070225292A1, “Therapeutic Compounds: Pyridine as Scaffold” (priority 2004, published 2007).

The molecules below were run against T1, Human CB1 receptor (Homo sapiens, UniProt P21554) (assay: hCB1 receptor binding (3H-CP55,940 displacement)). Details: human CB1 membranes, Ki=IC50/(1+[rad]/Kd).
T1 construct: purchased Receptor Biology
Procedure: Human CB1 receptor from Receptor Biology (hCB1) or human CB2 receptor from BioSignal (hCB2) membranes are thawed at 37° C., passed 3 times through a 25-gauge blunt-end needle, diluted in the cannabinoid binding buffer (50 mM Tris, 2.5 mM EDTA, 5 mM MgCl2, and 0.5 mg/mL BSA fatty acid free, pH 7.4) and aliquots containing the appropriate amount of protein are distributed in 96-well plates. The IC50 of the compounds of the invention at hCB1 and hCB2 are evaluated from 10-point dose-response curves done with ^3H-CP55,940 at 20000 to 25000 dpm per well (0.17-0.21 nM) in a final volume of 300 μl. The total and non-specific binding are determined in the absence and presence of 0.2 μM of HU210 respectively. The plates are vortexed and incubated for 60 minutes at room temperature, filtered through Unifilters GF/B (presoaked in 0.1% polyethyleneimine) with the Tomtec or Packard harvester using 3 mL of wash buffer (50 mM Tris, 5 mM MgCl2, 0.5 mg BSA pH 7.0). The filters are dried for 1 hour at 55° C. The radioactivity (cpm) is counted in a TopCount (Packard) after adding 65 μl/well of MS-20 scintillation liquid.
Based on the above assays, the dissociation constant (Ki) for a particular compound of the invention towards a particular receptor is determined using the following equation: Ki=IC50/(1+[rad]/Kd),
Wherein IC50 is the concentration of the compound of the invention at which 50% displacement has been observed;
[rad] is a standard or reference radioactive ligand concentration at that moment; and
Kd is the dissociation constant of the radioactive ligand towards the particular receptor.

T1 sequence (P21554 whole entry): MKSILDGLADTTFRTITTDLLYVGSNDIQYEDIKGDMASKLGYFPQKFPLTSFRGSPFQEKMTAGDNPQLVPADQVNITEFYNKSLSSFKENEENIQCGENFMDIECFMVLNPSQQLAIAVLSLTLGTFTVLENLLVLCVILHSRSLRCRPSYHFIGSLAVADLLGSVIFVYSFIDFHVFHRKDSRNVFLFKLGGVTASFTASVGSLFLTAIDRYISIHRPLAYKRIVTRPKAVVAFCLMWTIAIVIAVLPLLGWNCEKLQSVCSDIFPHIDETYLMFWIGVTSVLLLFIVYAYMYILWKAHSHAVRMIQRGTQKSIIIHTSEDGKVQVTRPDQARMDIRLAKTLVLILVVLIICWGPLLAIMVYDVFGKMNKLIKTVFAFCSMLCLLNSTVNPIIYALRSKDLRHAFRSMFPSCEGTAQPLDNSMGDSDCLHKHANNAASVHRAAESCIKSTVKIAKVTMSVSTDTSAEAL

Compared with O=C(NCC1CCCC1)c1ncccc1NC(=O)c1cccc2ccccc12 [Example 13, N-(Cyclopentylmethyl)-3-[(1-naphthalenylcarbonyl)amino]-2-pyridinecarboxamide], O=C(NCC1CCCCC1)c1ncccc1NC(=O)c1ccc(N2CCC2)c2ccccc12 [Example 171, 3-[(4-Azetidin-1-yl-1-naphthoyl)amino]-N-(cyclohexylmethyl)pyridine-2-carboxamide] is 4.8-fold higher in Ki: 12 nM for the first, 57 nM for the second. The first binds more tightly here.

O=C(NCC1CCOCC1)c1nccnc1NC(=O)c1cccc2ccccc12 [Example 43, 3-(1-Naphthoylamino)-N-(tetrahydro-2H-pyran-4-ylmethyl)pyrazine-2-carboxamide] and Cc1ccc(C(=O)Nc2cccnc2C(=O)NCc2ccccn2)c2ccccc12 [Example 80, 3-(4-Methyl 1-naphthoylamino)-N-(pyridin-2-ylmethyl)pyridine-2-carboxamide] are within 1.5-fold of each other in Ki: 181 nM for the first, 221 nM for the second.

Each molecule was assayed against T1, Human CB1 receptor (assay: hCB1 GTPγS binding). Details: human CB1 membranes, GTPg35S binding; maximal stimulated binding with 10 μM Win 55,212-2.
Assay type: biochemical
Procedure: Human CB1 receptor from Receptor Biology (hCB1) or human CB2 receptor membranes (BioSignal) are thawed at 37° C., passed 3 times through a 25-gauge blunt-end needle and diluted in the GTPγS binding buffer (50 mM Hepes, 20 mM NaOH, 100 mM NaCl, 1 mM EDTA, 5 mM MgCl2, pH 7.4, 0.1% BSA). The EC50 and Emax of the compounds of the invention are evaluated from 10-point dose-response curves done in 300 μl with the appropriate amount of membrane protein and 100000-130000 dpm of GTPg^35S per well (0.11-0.14 nM). The basal and maximal stimulated binding is determined in absence and presence of 1 μM (hCB2) or 10 μM (hCB1) Win 55,212-2 respectively. The membranes are pre-incubated for 5 minutes with 56.25 μM (hCB2) or […] (hCB1) GDP prior to distribution in plates (15 μM (hCB2) or 30 μM (hCB1) GDP final). The plates are vortexed and incubated for 60 minutes at room temperature, filtered on Unifilters GF/B (presoaked in water) with the Tomtec or Packard harvester using 3 ml of wash buffer (50 mM Tris, 5 mM MgCl2, 50 mM NaCl, pH 7.0). The filters are dried for 1 hour at 55° C. The radioactivity (cpm) is counted in a TopCount (Packard) after adding 65 μl/well of MS-20 scintillation liquid. Antagonist reversal studies are done in the same way except that (a) an agonist dose-response curve is done in the presence of a constant concentration of antagonist, or (b) an antagonist dose-response curve is done in the presence of a constant concentration of agonist.

Compared with O=C(NCC1CCCC1)c1ncccc1NC(=O)c1cccc2ccccc12 [Example 13, N-(Cyclopentylmethyl)-3-[(1-naphthalenylcarbonyl)amino]-2-pyridinecarboxamide], O=C(NCC1CCCCC1)c1ncccc1NC(=O)c1ccc(N2CCC2)c2ccccc12 [Example 171, 3-[(4-Azetidin-1-yl-1-naphthoyl)amino]-N-(cyclohexylmethyl)pyridine-2-carboxamide] is lower in Emax: 105% for the first, 71% for the second.

First: O=C(NCC1CCOCC1)c1nccnc1NC(=O)c1cccc2ccccc12 [Example 43, 3-(1-Naphthoylamino)-N-(tetrahydro-2H-pyran-4-ylmethyl)pyrazine-2-carboxamide]
Second: Cc1ccc(C(=O)Nc2cccnc2C(=O)NCc2ccccn2)c2ccccc12 [Example 80, 3-(4-Methyl 1-naphthoylamino)-N-(pyridin-2-ylmethyl)pyridine-2-carboxamide]
The Emax of the first is higher: 112% for the first, 75% for the second.

Same assay, conditions: human CB1 membranes, GTPg35S binding; read-out: EC5O (hCB1)

First: O=C(NCC1CCCC1)c1ncccc1NC(=O)c1cccc2ccccc12 [Example 13, N-(Cyclopentylmethyl)-3-[(1-naphthalenylcarbonyl)amino]-2-pyridinecarboxamide]
Second: O=C(NCC1CCCCC1)c1ncccc1NC(=O)c1ccc(N2CCC2)c2ccccc12 [Example 171, 3-[(4-Azetidin-1-yl-1-naphthoyl)amino]-N-(cyclohexylmethyl)pyridine-2-carboxamide]
The EC50 of the first is 4.7-fold lower: 46 nM for the first, 217 nM for the second.

O=C(NCC1CCOCC1)c1nccnc1NC(=O)c1cccc2ccccc12 [Example 43, 3-(1-Naphthoylamino)-N-(tetrahydro-2H-pyran-4-ylmethyl)pyrazine-2-carboxamide] and Cc1ccc(C(=O)Nc2cccnc2C(=O)NCc2ccccn2)c2ccccc12 [Example 80, 3-(4-Methyl 1-naphthoylamino)-N-(pyridin-2-ylmethyl)pyridine-2-carboxamide] are within 1.5-fold of each other in EC50: 907 nM for the first, 1230 nM for the second.
